Test results published in ChEMBL document CHEMBL3244112, “Dipeptides of O-methyl-L-threonine as potential antimalarials” (J Med Chem, 1979).
Calls of active or inactive are those of the source. No cut-off for these calls is given here. Peptide text beside a SMILES is read from it.

Experiments:
Plasmodium berghei [1] = assay: Antimalarial activity against Plasmodium berghei infected in mouse assessed as increase of survival time of host at 160 to 640 mg/kg; format: functional, organism-based
Mus musculus = assay: Toxicity in Plasmodium berghei infected mouse at <640 mg/kg; format: organism-based; details: in vivo
Plasmodium berghei [2] = assay: Antimalarial activity against Plasmodium berghei infected in mouse assessed as increase of survival time of host at 640 mg/kg; format: functional, organism-based; parameters: dose 640 mg/kg
Plasmodium berghei [3] = assay: Antimalarial activity against Plasmodium berghei infected in mouse assessed as increase of survival time of host; format: functional, organism-based

Compound	Activity (Plasmodium berghei [1])	Activity (Mus musculus)	Activity (Plasmodium berghei [2])	Activity (Plasmodium berghei [3])
CO[C@H](C)[C@H](N)C(=O)O	Active			
CO[C@H](C)[C@H](NC(=O)[C@@H](N)CC(C)C)C(=O)O (H-Leu-Thr(Me)-OH)		Non-toxic	inactive	
CO[C@H](C)[C@H](N)C(=O)N[C@@H](CC(C)C)C(=O)O (H-Thr(Me)-Leu-OH)		Non-toxic	inactive	
CO[C@H](C)[C@H](N)C(=O)N[C@H](C(=O)O)[C@@H](C)OC (H-Thr(Me)-Thr(Me)-OH)			Active	Active
CC(C)C[C@H](N)C(=O)O [LEUCINE]		Non-toxic	inactive	
